Molecular target: T1, TmGalA (Thermotoga maritima, UniProt G4FEF4)
T1 construct: gene galA
Assay: time-dependent inactivation, dilution assay, residual activity with 4-nitrophenyl α-D-galactopyranoside
Type: biochemical
Settings: covalent, irreversible inactivator; Ki from kobs versus concentration (kinact/Ki analysis); 50 mM HEPES pH 7.4, 37 °C, BSA 1 mg/mL; read-out: Km (μM) / Ki

T1 sequence (G4FEF4 whole entry): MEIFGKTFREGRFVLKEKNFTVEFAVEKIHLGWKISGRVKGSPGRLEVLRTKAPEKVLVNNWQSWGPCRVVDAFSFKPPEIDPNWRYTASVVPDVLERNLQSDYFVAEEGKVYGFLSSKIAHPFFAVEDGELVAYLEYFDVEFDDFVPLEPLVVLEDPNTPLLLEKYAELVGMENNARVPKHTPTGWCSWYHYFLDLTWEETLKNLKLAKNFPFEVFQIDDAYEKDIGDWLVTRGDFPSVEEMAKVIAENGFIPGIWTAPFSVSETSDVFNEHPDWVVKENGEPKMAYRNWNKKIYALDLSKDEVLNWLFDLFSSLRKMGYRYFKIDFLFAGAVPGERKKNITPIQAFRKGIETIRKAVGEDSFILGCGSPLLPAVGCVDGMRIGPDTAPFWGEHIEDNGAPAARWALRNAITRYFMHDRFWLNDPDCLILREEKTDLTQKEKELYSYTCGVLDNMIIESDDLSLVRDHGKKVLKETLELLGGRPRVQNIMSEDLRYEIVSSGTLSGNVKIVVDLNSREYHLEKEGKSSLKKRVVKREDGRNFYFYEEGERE

OC[C@@H]1[C@H](O)[C@H](O)[C@@H](O)[C@H]2O[C@@H]12 [compound 8, cyclophellitol analog 8] was tested, and the KI (inactivation) was 161 ± 18 µM.
